Test [1] has as its system TNF-α. Briefly: TNF-α release in N9 clonal murine microglial cells. It counts as cell-based. The following applies: for TNF-α release induced by the activator alone: single dose. The protocol: (§1) Primary microglial cultures were prepared from neonatal mouse (C57BL6) brains as previously described (Reference 29) and maintained in Delbecco's modified Eagle's medium with F-12 nutrient mixture (DMEM/F12) containing 10% fetal bovine sera (FBS) and antibiotics. N9 clonal murine microglial cell cultures were maintained in Iscoves modified Delbecco's medium (IMDM) containing 5% heat-inactivated FBS, 2 mM L-glutamine, 50 μM 2-mercaptoethanol and antibiotics. Treatment of both primary and N9 microglial cells were performed under serum-free conditions. Freshly solublized Aβ (BioSource, Camarillo, Calif.) peptides were prepared and characterized as previously described (References 30 and 44) and were used in all in vitro experiments. Unless specified, cells were always pretreated with sAβ for 5 min and then followed by challenge with α-thrombin (100 nM or as indicated), glutamate (2 mM) or LPS (5 ng/ml).
(§2) TNF-α production in microglial culture media was measured and standardized as previously described (Reference 29).
(§3) Given our results that sAβ disrupts GRK function and inhibits GPCR desensitization in microglia, we next investigated whether such signaling dysregulation might lead to cellular functional changes in microglia. Both primary and N9 clonal murine microglial cultures were used and TNF-α secretion in culture media was measured as an outcome. […] Moreover, the potentiation effect of sAβ on thrombin and glutamate-induced microglial activation was dose-dependent, with a minimal effective concentration (ECmin) of 20 nM and a maximal EC (ECmax) of 500 nM. Furthermore, the enhancement effect was not observed if sAβ was given after (10 min) thrombin or glutamate treatments. […] Together with the evidence that sAβ inhibits GRK-GPCR interactions and causes prolongation of GPCR signaling, we conclude that sAβ, by disrupting GRK function, alters microglial reactivity to specific GPCR activators.
FIG. 6A, pretreatment with sAβ1-42 potentiated (p<0.01) TNF-α release induced by increasing doses of thrombin (Thr) as indicated from primary mouse brain microglial cultures. n=4. […] The ECmin and ECmax for sAβ's potentiation are approximately 20 nM and 500 nM, respectively. n=6.

The subject of a further test is PAR4-GRK2. Briefly: GRK-PAR binding in microglial cells by IP and WB: PAR4-GRK2. It counts as cell-based, murine. As to conditions: thrombin 100 nM alone, 30 seconds, compared to untreated microglial cells. On the procedure:
as §1, with “Unless specified, cells were always pretreated with sAβ for 5 min and then followed by challenge with α-thrombin (100 nM or as indicated), glutamate (2 mM) or LPS (5 ng/ml).” left out
(§4) Cultured cells were lysed in pre-chilled 2×IP buffer I (Tris, 20 mM, pH 7.4; NaCl, 300 mM; EDTA, 2 mM; 2 mM EGTA, pH 8.0; 0.4 mM sodium ortho-vanadate, 2% Triton X-100; 1% NP-40; 0.4 mM PMSF) supplemented both with phosphatase and protease inhibitor cocktails. After centrifugation, the supernatants were collected and total protein concentrations were determined by the bicinchoninic acid assay (BCA). […] Both antibodies to GRK2 and GRK5 (Santa Cruz) were diluted 1:500 for WB, other routine procedures, WB for total and phospho-p44/42 MAPK, and semi-quantitative analysis of protein band density were performed as previously described (Reference 29). […]

For a further test, the system named is [Ca^2+]i. Briefly: Ca2+ imaging (Fluo-4) in microglial cells. It counts as cell-based, murine. The protocol: as §1
We measured [Ca^2+]i in microglial cells using Fluo-4 (2 μM) with the aid of a Nikon BioRadiance triple laser scanning confocal microscope. Image collection, quantification and data analysis were performed as previously described (Reference 29).
(§5) In previous studies, we found thrombin signaling via PARs in microglial cells involving [Ca^2+]i increase and transient activation of both p38 and p44/42 mitogen-activated protein kinases (MAPKs) (Reference 29). To understand potential consequences of GRK dysfunction induced by sAβ, for these studies we also assessed changes in thrombin signaling in sAβ-pretreated microglial cells.
(§6) FIG. 5A, N9 microglial cells were pre-treated with 500 nM sAβ1-42 (arrow “1”) followed by 100 nM thrombin treatment (arrow “2”). Changes in [Ca^2+]i were measured as previously described (Reference 29) from three separate experiments. […] For both FIGS. 5B and 5C, lane M=Marker, 1=Control (0 min), 2=Control (25 min), 3=Aβ1-42 (25 min), 4=Thrombin (20 min), 5=Aβ1-42+thrombin (20 min post-Aβ), 6=Control (24 h), 7=Aβ1-42 (24 h), 8=Thrombin (24 h) and 9=Aβ1-42+thrombin (24 h post-Aβ). “P” and “T” indicate phosphorylated and total p38 or p44/42 MAPKs, respectively.

The test system of another test is PAR1-GRK2. Briefly: GRK-PAR binding in microglial cells by IP and WB: PAR1-GRK2. Type of test: cell-based, murine. The following applies: thrombin 100 nM alone, 30 seconds, compared to untreated microglial cells. On the procedure: as §1, with “Unless specified, cells were always pretreated with sAβ for 5 min and then followed by challenge with α-thrombin (100 nM or as indicated), glutamate (2 mM) or LPS (5 ng/ml).” left out
as §4

The next test deals with p44/42 MAPK. Briefly: p44/42 MAPK phosphorylation in microglial cells (WB). Type of test: cell-based, murine. As to conditions: substance alone. The protocol: as §1
(§7) Cultured cells were lysed in pre-chilled 2×IP buffer I (Tris, 20 mM, pH 7.4; NaCl, 300 mM; EDTA, 2 mM; 2 mM EGTA, pH 8.0; 0.4 mM sodium ortho-vanadate, 2% Triton X-100; 1% NP-40; 0.4 mM PMSF) supplemented both with phosphatase and protease inhibitor cocktails. After centrifugation, the supernatants were collected and total protein concentrations were determined by the bicinchoninic acid assay (BCA). Equal amounts (250 μg) of cell lysates from each group were mixed with 20 μl (˜5 μg) of either PAR1 or PAR4 antibodies, and brought to a total volume of 1 ml in 1×IP buffer. Following a 1 hour incubation at 4° C., appropriate secondary antibody-agarose conjugates were added followed by incubation (30 min with agitation), centrifugation and sufficient washes. The pellets were resuspended in 30 μl of electrophoresis sample buffer and boiled for 5 min. The supernatants were directly used for polyacrylamide sodium dodecyl sulfate gel electrophoresis (SDS-PAGE) and WB analysis. To prepare subcellular fractions of brain samples, we homogenized fresh or fresh-frozen tissues in Tris buffered saline solution (Tris, 10 mM, pH 7.4; NaCl, 150 mM; EDTA, 1 mM; 1 mM EGTA, pH 8.0; 0.2 mM sodium ortho-vanadate) supplemented with protease inhibitor cocktails. After centrifugation (12,000 g at 4° C. for 15 min), the supernatants were collected as cytosolic fractions. The pellets were resuspended in 1×IP buffer containing protease inhibitor cocktail. Following brief sonication and centrifugation (12,000 g at 4° C. for 15 min), the supernatants were collected as membrane fractions. Both antibodies to GRK2 and GRK5 (Santa Cruz) were diluted 1:500 for WB, other routine procedures, WB for total and phospho-p44/42 MAPK, and semi-quantitative analysis of protein band density were performed as previously described (Reference 29).
as §5, §6

Another test concerns p38 MAPK. Briefly: p38 MAPK phosphorylation in microglial cells (WB). Type of test: cell-based, murine. As to conditions: substance alone. The protocol: as §1, §7, §5, §6
Another test concerns PAR4-GRK5. Briefly: GRK-PAR binding in microglial cells by IP and WB: PAR4-GRK5. It counts as cell-based, murine. The following applies: thrombin 100 nM alone, 30 seconds, compared to untreated microglial cells. On the procedure:
as §1, with “Unless specified, cells were always pretreated with sAβ for 5 min and then followed by challenge with α-thrombin (100 nM or as indicated), glutamate (2 mM) or LPS (5 ng/ml).” left out
as §4

The test system of test [2] is TNF-α. Briefly: TNF-α release in primary mouse brain microglial cultures. Type of test: cell-based. As to conditions: 5 min pretreatment, FIG. 6A. The protocol: as §1, §2, §3
FIG. 6A, pretreatment with sAβ1-42 potentiated (p<0.01) TNF-α release induced by increasing doses of thrombin (Thr) as indicated from primary mouse brain microglial cultures. n=4. […]

The test system of another test is GRK5. Briefly: GRK5 subcellular distribution in sAβ-treated microglial cells (immunocytochemistry, semi-quantified). It counts as cell-based, murine. As to conditions: ICC; for translocation of GRK5 from cell membrane to cytosol: 5 min, primary murine microglial cells, serum-free medium. The protocol: Primary microglial cultures were prepared from neonatal mouse (C57BL6) brains as previously described (Reference 29) and maintained in Delbecco's modified Eagle's medium with F-12 nutrient mixture (DMEM/F12) containing 10% fetal bovine sera (FBS) and antibiotics. N9 clonal murine microglial cell cultures were maintained in Iscoves modified Delbecco's medium (IMDM) containing 5% heat-inactivated FBS, 2 mM L-glutamine, 50 μM 2-mercaptoethanol and antibiotics. Treatment of both primary and N9 microglial cells were performed under serum-free conditions.
Microglial cells were seeded onto poly-L-lysine-coated 8-chamber slides at a density of 1×10^4/well. After various treatments, cells were immediately fixed with pre-chilled (4° C.) 5% acetic acid in methanol for 45 min at 4° C., followed by washing with PBS. The fixed cells were blocked and double-stained with phalloidin-FITC (1:1,000) and anti-GRK5 (1:500) or GRK2 (1:500). Secondary antibody-Cy3 conjugates (1:500) staining, washing, mounting and confocal microscopic visualization were performed routinely as previously described (Reference 29).
Briefly, the selected cell image corresponding to GRK staining, was copied, enlarged, inverted and rotated to an appropriate position for quantification with NIH Image. […] FIGS. 3E and F show the examples of profiles for the solid-line indicated levels in FIGS. 3C and D, respectively. The dark and light grey areas in FIGS. 3E and F represent membrane and Cyto, respectively. The sum of areas for membrane and Cyto from all slices in each cell represents GRK subcellular distribution in this particular cell. For each treatment, 20 randomly selected cells were quantified and the average data were shown.
Microglial-mediated inflammation is an important pathological component of AD (Reference 28). […] Thrombin, a serine protease is known to activate protease-activated GPCRs, (PARs) such as PAR1 (Reference 29) and PAR4 in microglia.
N9 microglial cells were treated with sAβ1-42 (500 nM) for 5 minutes. […] The detailed methods for semi-quantification of GRK subcellular distribution are described in Methods section (above).

Setting [3] is: within 20 min post-Aβ treatment.
Where [4] appears, read: 5 min pretreatment, N9 cells, FIG. 6B.

The values below come from US7252953B2, “Method of detecting and preventing Alzheimer's disease, particularly at prodromal and early stages” (United States of America Department of Veterans Affairs, priority 2002, dated 2007).

Regarding `N[C@@H](CCC(=O)O)C(=O)O` [glutamate], the “TNF-α release induced by the activator alone” value in the test on TNF-α [1] (N9 cells, FIG. 6B) is reported as “significantly stimulated”.

As for thrombin, the “increase of PAR4 binding to GRK2” value with PAR4-GRK2 is listed as ~2 fold. For the same compound, the “[Ca^2+]i above basal levels after the rapid decrease” value in test [Ca^2+]i (thrombin alone (100 nM)) is given as “approximately 100 nM”. Moreover, the “change of [Ca^2+]i” value in test [Ca^2+]i (thrombin alone (100 nM)) is “steep and sharp increase”; in test [Ca^2+]i (thrombin alone (100 nM), listed as Thrombin), “sharp increase and rapidly decrease”. Besides, the “duration of the [Ca^2+]i level above basal” value in [Ca^2+]i (thrombin alone (100 nM)) is “at least 4 min”. The “TNF-α release induced by the activator alone” value with TNF-α [1] (N9 cells, FIG. 6B) is “significantly stimulated”. Besides, the “increase of PAR1 binding to GRK2” value with PAR1-GRK2 is on record as ~30 fold. In addition, the “p44/42 MAPK phosphorylation” value with p44/42 MAPK (24 h) is given as “returned to basal levels”; in the test with p44/42 MAPK (setting [3]) it was “increased phosphorylation”. The “p38 MAPK phosphorylation” value is “returned to basal levels” in the test with p38 MAPK (24 h) and “increased phosphorylation” in the test with p38 MAPK (setting [3]). The “increase of PAR4 binding to GRK5” value with PAR4-GRK5 is recorded as ~4 fold.

With “sAβ1-42: Freshly solubilized soluble β-amyloid 1-42 peptide (BioSource), mixture of monomeric and oligomeric Aβ”, the “effect of sAβ pretreatment on thrombin-induced TNF-α release” value in the test with TNF-α [2] is “potentiated”. For the same compound, the “translocation of GRK5 from cell membrane to cytosol” value in the test on GRK5 (50 nM peptide) is listed as “To a lesser extent, similar GRK5 changes were also observed”. In addition, the “translocation of GRK5 from cell membrane to cytosol” value in the test on GRK5 (500 nM peptide) is on record as “induced a rapid translocation of GRK5 from cell membrane to cytosol”. In the test on GRK5 (500 nM, 5 minutes, N9 microglial cells), the “translocation of GRK5 from membrane to cytosol compartment” value is reported as “induced a rapid translocation of GRK5 from membrane to cytosol compartment”. In addition, in [Ca^2+]i (sAβ1-42 500 nM alone), the “change of free [Ca^2+]i” value was “slow and moderate increase”; the “time for [Ca^2+]i to return to basal levels” value is given as ≤ 4 min. In the test on TNF-α [1] (setting [4]), the “effect of sAβ pretreatment on LPS-induced TNF-α release” value is “not”, the “effect of sAβ pretreatment on glutamate-induced TNF-α release” value is “dose-dependently potentiated” and the “effect of sAβ pretreatment on thrombin-induced TNF-α release” value is “dose-dependently potentiated”. Moreover, the “enhancement of TNF-α release when sAβ is given after thrombin or glutamate (post-treatment)” value in the test on TNF-α [1] (sAβ given 10 min after thrombin or glutamate) is on record as “not”.

With “sAβ1-40: Freshly solubilized soluble β-amyloid 1-40 peptide (BioSource)”, in the test on GRK5 (50 nM peptide), the “translocation of GRK5 from cell membrane to cytosol” value is recorded as “not”.
